# According to patent US10101322B2, “Photoactivated chemical bleaching of dyes using borates” (GENERAL ELECTRIC COMPANY, priority 2015, dated 2018):
# Entries after “also recorded” stand apart in the source; their conditions may differ.
# Columns and labels:
# [1] = Cy3 bleaching with borates in water; settings: aqueous solution; in Example 2D 0.5 mM borate, 100 W halogen lamp, absorbance at 552 nm
# Experimental: To a 2 mL solution of previously hydrolyzed Cy3 bis reactive dye in water (3.4×10^-5M solution), 2 mL of 0.5 mM solution of anionic borate (MBB), cationic borate (e′) or cationic borate (f′) were added and the solution was irradiated. […] FIG. 10 is a bar graph comparing bleaching kinetics of Cy3 by different borates.
# [2] = Cy3 dye bleaching with borates in ethanol; settings: 1 mM borate, 1 minute, 100 W halogen lamp, absorbance at 552 nm
# Experimental: To a 2 mL solution of previously hydrolyzed Cy3 bisreactive dye (GE Healthcare) in ethanol (2.5×10^-5M solution), 2 mL of 1 mM solution of one of the following borates: anionic borate (MBB), neutral borate, a or b (Formula I), and cationic borates e′ or f′ in ethanol was added. Samples were irradiated for 1 minute using 100 W halogen lamp. The decrease in Cy3 absorbance at 552 nm was measured to monitor photobleaching, and the results were plotted, as is shown in FIG. 8. The bar graph compares the bleaching kinetics of Cy3 by different borates in ethanol.
# [3] = Eosin Y bleaching with borates in water; settings: aqueous solution; in Example 2A 0.5 mM borate, 1 minute, 100 W halogen lamp
# Experimental: To a 2 mL solution of Eosin in water (2.26×10^-5M solution), 2 mL of 0.5 mM of cationic Borate (e′), Cationic Borate (f′) or anionic borate (MBB) were added, and the solution was irradiated for 1 minute using 100 W halogen lamp. […] FIG. 6 is a bar graph comparing bleaching kinetics of eosin by different borates MBB (a), e′ (b), and f′ (c).
# [4] = Eosin Y bleaching with borates in ethanol; settings: 1 mM borate, 2 min irradiation, 100 W halogen lamp
# Experimental: To a 2 mL solution of Eosin in ethanol (2.5×10^-5M solution), 2 mL of 1 mM of anionic borate (MBB), a neutral borate a, (Formula I) or a neutral borate b (Formula I) were added and the solution was irradiated for 1-2 minutes using 100 W halogen lamp. Absorbance at λmax of dye was measured to monitor photobleaching, and the results were plotted, as is shown in the bar graph plot of FIG. 7.
# [5] = Stability of solid borate on exposure to air (1H NMR, colour)
# [6] = system: Her2/CEP17 DNA FISH signal; experiment: DNA FISH signal bleaching and FISH on PICB bleached slides; parameters: species or system Human
# Experimental: Slides were H&E stained and bleached as described above. Alternatively previously imaged and archived H&E slides were processed through the steps of decoverslipping, hydration, antigen retrieval, blocking and bleaching with f′ as described above for freshly stained H&E slides.
# Slides were immersed in a pre-warmed 0.1% pepsin solution for 8 minutes then placed in room temperature PBS for 2 minutes. Samples were re-fixed in 4% formalin for 10 minutes then washed 2×5 minutes in PBS. Slides were dehydrated in ethanol series 50%, 70%, and 95%, 2 minutes each and allowed to dry on bench top for 10 minutes. Pre-mixed dual Her2/CEP17 probe was vortexed, spun, and added to samples. Samples were coverslipped and sealed with a rubber sealant per usual practice. After allowing rubber cement to cure for 10 minutes, probes were hybridized in Thermobrite cycler: 80° C. denaturation for 10 minutes followed by 37° C. incubation overnight. Rubber cement was removed and slides were decoverslipped in preheated 37° C. 2×SSC for 5 minutes. […] Slides were washed 2×2 minutes with 2×SSC, removed from buffer to dry, coverslipped with 4% DABCO in 90% glycerol/2×SSC, and imaged on an Olympus IX81 fluorescence microscope using a 40× objective with following exposure times: for DAPI (2 ms), spectrum green (CEP17-200 ms), and spectrum orange (Her2-400 ms). […]
# [7] = Charge transfer complex formation between Eosin-Y and cationic borate (UV-Vis titration); format: physicochemical; settings: without irradiation
# Experimental: A 50 ul of 1 mM eosin solution in water was further diluted to 3 ml with water and to this was added 1 mM solution of f′ (Formula I) in water in 25 ul portions. UV-Vis spectrum was acquired after every 25 μL f′ addition.
# This is believed to be due an electrostatic charge-transfer complex formulation between cationic borate: eosin-y complex.
# This phenomenon may be attributed to formation of charge-transfer complex between anionic Eosin-Y and cationic Borate. The electrostatic charge transfer formation is responsible for quenching of Eosin-Y fluorescence.
# [8] = Residual eosin bleaching (PICB) in H&E stained tissue sections; parameters: species or system Human; settings: 0.15 mM f′, irradiation in presence of DABCO, three cycles
# Experimental: Human breast tissue array samples were obtained as tissue slides embedded in paraffin from Clarient (Huntsville, Ala.). Slides were baked at 60° C. for 15 minutes and then washed with xylene (1×10 min) to remove paraffin.
# All the slides were stained with hematoxylin and eosin and coverslipped following the standard procedures in the literature (IHC World LLC, Protocol Database, Hematoxylin and Eosin (H&E) Staining Protocol). After staining, the images were obtained as described below.
# Bright field and Fluorescence images were taken for all the slides using Leica bright field microscope and Olympus IX81 fluorescence microscope (Olympus Co., Tokyo, Japan respectively. For fluorescence imaging the following excitation filters were used: eosin 500/40 nm, Cy3 550/40 nm and Cy5 650/40 nm.
# After imaging, samples were decoverslipped by incubation in xylenes overnight and hydrated by washing in four solutions of ethanol with concentrations decreasing in the order of 100%, 95%, 70%, and 50% followed by a wash with 1× phosphate buffer saline (PBS, pH 7.4). After rehydration, the slides were washed with 1×PBS. A ten minute incubation in 0.3% Triton X-100 in PBS was performed for membrane permeabilization of the tissue, followed by a wash with 1×PBS.
# Hydrated slides were treated with dual-buffer heat-induced epitope retrieval. […] Slides were imaged by brightfield and fluorescence microscopy. […]
smiles,measurement,setting,value
C[N+](C)(C)c1ccc([B-](c2ccc([N+](C)(C)C)cc2)(C2CCCC2)C2CCCC2)cc1.[I-] [e′],Cy3 bleaching kinetics compared to anionic borate (MBB),[1],much faster bleaching kinetics
same,Cy3 bleaching kinetics,[2],performed well
same,Eosin-Y photobleaching compared to anionic borate (MBB),[3],improved
same,order of Eosin photobleaching kinetics,[4],cationic>neutral>anionic
"c1ccc(C[B-](c2ccccc2)(c2ccccc2)c2ccccc2)cc1 [MBB, monobenzyltriphenyl borate, reference compound]",time to evidence of decomposition,[5]; exposure to air,< 10 min
same,colour change on exposure to air,[5]; white solid stored inertly,becoming yellow in color immediately on exposure to air
same,order of Eosin photobleaching kinetics,[4],cationic>neutral>anionic
COS(=O)(=O)[O-].C[N+](C)(C)c1ccc([B-](c2ccc([N+](C)(C)C)cc2)(C2CCCC2)C2CCCC2)cc1 [f′],decomposition,[5]; after 2 months of exposure to air,~2%
same,degradation by 1 HNMR,"[5]; solid form, exposure to air for over 5 weeks",no degradation
same,Cy3 bleaching kinetics compared to anionic borate (MBB),[1],significantly improved; also recorded: much faster bleaching kinetics
same,bleaching of DNA FISH signal,[6],erased
same,bathochromic (red-shift) of the Eosin-Y peak,[7]; 1 mM f′ added in 25 ul portions to eosin in water,518 nm shifts to 523 nm
same,colour change of eosin solution on borate addition,[7]; water,clear change in color to non-fluorescent pink
same,Cy3 bleaching kinetics,[2],performed well
same,Eosin-Y photobleaching compared to anionic borate (MBB),[3],significantly improved
same,order of Eosin photobleaching kinetics,[4],cationic>neutral>anionic
same,bleaching of residual eosin signal in tissue,[8],efficient bleaching; also recorded: efficiently bleach eosin; also recorded: effective bleaching; also recorded: mostly removed
